The structures appear in SMILES notation.

Assay type in all cases: cell-based
One assay has as its system Z-138 cells. In words: Z-138 Proliferation Assay (Cell Titer-Glo). As to conditions: 72 hours; for Ymin (%): % remaining (percent of DMSO control); for EC50: Homo sapiens, Cell Titer-Glo, 4-parameter curve fit. The method, then: Z-138 Proliferation Assay
Z-138 cells were cultured in IMDM Medium supplemented with 10% heat in-activated fetal bovine serum and 1% Penicillin-Streptomycin.
10 mM stocks of compound were made from fresh powder. DMSO was added to solid compound so that the final concentration was 10 mM. Compounds were vortexed and allowed to sit for 5 minutes to ensure complete solubility. Solvated compound was aliquoted into 1 ml Eppendorf tubes and stored in a −20° C. freezer.
Z-138 cells were maintained in culture using standard cell culturing techniques.
Cells were maintained at a density of 0.8×10^6 cells/ml.
Re-constitute cell titer-glo reagent according to manufacturer's protocol.
Z-138 cells were removed from culture and cell viability and density were determined using a CellDrop™ Automated Cell Counter with Tryphan blue stain according to manufacturer's protocols. Cells were centrifuged and resuspended using fresh media to a cell density of 0.1×10^6 cells/ml. […] 40 μl of cell suspension was added to the wells of a 384 well tissue culture plate (4,000 cells/well final). Upon completing the addition of the cells to the plate, the plates were centrifuged for 30 seconds at 300 rpms to help the cells settle and to bring air bubbles to the top of the wells. Air bubbles were popped using a pipette tip.
10-point dose response curves were performed using a D300e Digital Dispenser. The highest concentration of compound used in the assay was 10,000 nM. 1:2 dilutions were performed over a 10-point range with the final DMSO concentration being 0.1%. The cells were cultured for 72 hours in the presence of compound.
After 72 hours, the cell plates were removed from the incubator and allowed to equilibrate to room temperature (about 15 minutes). 20 μl of cell titer-glo reagent was added to each well of the 384 well plate. Incubated the plate for 30 minutes in the dark. After 30 minutes, ensured that there were no air bubbles in the plate (popped bubbles with pipette tip if necessary) and analyzed plate using a luminometer.
EC50 curves were generated using Prism Graph Pad. In brief, POCs (percent of control, compound/DMSO control×100) were plotted against the compound concentrations (log scale). EC50 curves were generated using a 4-parameter curve fit.
A general note: Cellular ATP, detected with luciferase, serves as a proxy for viable cell number.

For assay [1], the target named is T1, GSPT1 (Homo sapiens, UniProt P15170+Q96SW2). In words: HiBiT degradation assay, GSPT1, Procedure A. Set-up: HiBit-GSPT1 KI HEK293(LgBit) Cells; host or cells: HEK293(LgBit) knock-in cells. The following applies: six hours incubation. An outline of the steps:
(§1)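 10-pt dose response, 10–0.005 μM, 0.1% DMSO; cells 1×10^6/ml in DMEM/10% FBS, 6 h, 37° C; HiBiT lytic detection, luminescence; DC50 + Ymin by 4-parameter fit.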
(In general: The HiBiT peptide binds its large partner to form an active luciferase.)

A further assay has as its target T2, CK1α (Homo sapiens, UniProt P48729+Q96SW2).
T2 construct: CSNK1A1-HiBit KI HEK293(LgBit) Cells; host or cells: HEK293(LgBit) knock-in cells
As to the kind of experiment: HiBiT degradation assay, CK1α, Procedure A. The procedure, abridged:
as §1

The target of assay [2] is T1, GSPT1. In words: HiBiT degradation assay, GSPT1, Procedure B (Molt 4_hGSPT1_HiBIT cells). Further details: Molt 4_hGSPT1_HiBIT N-terminus tagged cells were generated using CRISPR technology; endogenous in cells; host or cells: Molt 4 cells, CRISPR-edited. As to conditions: six hours. An outline of the steps: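 CRISPR N-terminal HiBiT-tagged Molt 4 cells at 1×10^6 cells/ml were treated 6 h at 37° C with compounds (10-point, 10 μM to 0.005 μM, 0.1% DMSO). Remaining HiBiT-GSPT1 was read by lytic luminescence; DC50 and Ymin (% remaining) from a 4-parameter fit.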

T2 sequence (P48729 whole entry): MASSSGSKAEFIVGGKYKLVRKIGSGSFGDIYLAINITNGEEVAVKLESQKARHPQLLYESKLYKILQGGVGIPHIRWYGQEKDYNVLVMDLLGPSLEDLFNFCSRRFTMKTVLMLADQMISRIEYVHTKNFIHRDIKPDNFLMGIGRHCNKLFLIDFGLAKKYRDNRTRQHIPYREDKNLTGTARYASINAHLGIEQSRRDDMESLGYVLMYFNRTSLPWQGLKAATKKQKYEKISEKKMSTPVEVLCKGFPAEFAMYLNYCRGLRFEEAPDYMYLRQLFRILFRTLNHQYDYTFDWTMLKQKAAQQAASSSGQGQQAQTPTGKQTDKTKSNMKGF
T2 sequence (Q96SW2 whole entry): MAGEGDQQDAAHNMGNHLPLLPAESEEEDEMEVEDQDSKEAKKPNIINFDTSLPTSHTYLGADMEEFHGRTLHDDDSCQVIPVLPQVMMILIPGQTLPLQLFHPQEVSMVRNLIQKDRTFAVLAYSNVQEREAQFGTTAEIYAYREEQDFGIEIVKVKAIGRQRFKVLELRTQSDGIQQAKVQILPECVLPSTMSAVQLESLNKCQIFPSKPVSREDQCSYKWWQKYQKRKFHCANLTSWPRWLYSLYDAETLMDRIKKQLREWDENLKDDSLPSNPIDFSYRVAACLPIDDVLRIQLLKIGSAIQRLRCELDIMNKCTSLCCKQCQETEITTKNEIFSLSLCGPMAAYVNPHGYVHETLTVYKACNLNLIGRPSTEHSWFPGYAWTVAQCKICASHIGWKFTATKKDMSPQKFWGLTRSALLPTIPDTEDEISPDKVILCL
T2 sequence (Q16531 whole entry partner): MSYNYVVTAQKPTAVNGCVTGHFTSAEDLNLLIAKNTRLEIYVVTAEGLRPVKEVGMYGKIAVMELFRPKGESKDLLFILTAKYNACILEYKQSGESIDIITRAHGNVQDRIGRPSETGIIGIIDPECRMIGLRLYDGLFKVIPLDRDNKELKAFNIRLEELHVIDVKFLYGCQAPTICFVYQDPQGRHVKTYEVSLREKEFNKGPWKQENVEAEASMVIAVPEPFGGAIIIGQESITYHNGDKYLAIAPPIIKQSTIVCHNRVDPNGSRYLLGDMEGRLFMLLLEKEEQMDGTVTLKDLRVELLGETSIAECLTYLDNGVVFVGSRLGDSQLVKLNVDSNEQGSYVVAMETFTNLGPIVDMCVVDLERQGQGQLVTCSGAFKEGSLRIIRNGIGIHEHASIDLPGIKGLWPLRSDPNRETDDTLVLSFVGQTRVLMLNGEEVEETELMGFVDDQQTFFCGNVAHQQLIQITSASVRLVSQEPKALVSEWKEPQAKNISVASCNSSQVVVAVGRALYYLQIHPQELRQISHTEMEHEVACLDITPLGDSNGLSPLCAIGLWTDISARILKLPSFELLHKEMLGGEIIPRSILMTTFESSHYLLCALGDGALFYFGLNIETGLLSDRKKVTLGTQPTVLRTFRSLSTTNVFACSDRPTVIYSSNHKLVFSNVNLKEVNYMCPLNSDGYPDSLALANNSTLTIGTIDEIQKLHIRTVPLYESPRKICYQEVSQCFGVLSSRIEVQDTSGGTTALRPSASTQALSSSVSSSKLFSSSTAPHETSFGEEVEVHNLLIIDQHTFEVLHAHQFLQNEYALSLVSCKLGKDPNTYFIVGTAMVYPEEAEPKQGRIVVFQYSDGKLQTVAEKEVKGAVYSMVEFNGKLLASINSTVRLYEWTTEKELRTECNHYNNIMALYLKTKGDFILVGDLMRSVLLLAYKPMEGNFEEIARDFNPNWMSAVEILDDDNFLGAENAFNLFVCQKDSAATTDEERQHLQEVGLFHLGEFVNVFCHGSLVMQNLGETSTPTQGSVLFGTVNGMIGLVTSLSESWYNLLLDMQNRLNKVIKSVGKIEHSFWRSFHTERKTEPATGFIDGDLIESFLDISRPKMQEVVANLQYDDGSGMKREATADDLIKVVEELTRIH
T1 sequence (P15170 whole entry): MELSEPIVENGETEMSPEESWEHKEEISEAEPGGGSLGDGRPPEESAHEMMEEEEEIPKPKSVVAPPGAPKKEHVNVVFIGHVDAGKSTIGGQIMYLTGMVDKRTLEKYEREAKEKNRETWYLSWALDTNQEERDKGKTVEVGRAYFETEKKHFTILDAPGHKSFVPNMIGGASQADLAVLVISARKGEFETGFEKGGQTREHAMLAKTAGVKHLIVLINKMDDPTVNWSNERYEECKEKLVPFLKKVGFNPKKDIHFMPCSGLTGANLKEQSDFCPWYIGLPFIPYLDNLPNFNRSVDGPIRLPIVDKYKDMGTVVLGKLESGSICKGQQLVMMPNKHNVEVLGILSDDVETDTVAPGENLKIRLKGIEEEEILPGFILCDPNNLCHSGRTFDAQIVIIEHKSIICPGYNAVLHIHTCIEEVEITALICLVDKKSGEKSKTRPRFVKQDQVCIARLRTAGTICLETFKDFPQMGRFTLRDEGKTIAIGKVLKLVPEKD
T1 sequence (Q96SW2 whole entry): as the sequence (Q96SW2 whole entry) above
T1 sequence (Q16531 whole entry partner): as the sequence (Q16531 whole entry partner) above

The EC50 is the concentration that produces a half-maximal response. Lower therefore signals greater potency. In general, DC50 refers to the concentration giving 50% degradation. Low readings indicate degradation at low concentration, high ones degradation only at high concentration. Regarding `O=C1CCC(N2Cc3cc(-c4nccn4-c4ccccc4)ccc3C2=O)C(=O)N1` (stereo not drawn) [Example 7, 3-(1-Oxo-5-(1-phenyl-1H-imidazol-2-yl)isoindolin-2-yl)piperidine-2,6-dione], in the assay on Z-138 cells, the “Ymin (%)” value is reported as “D (0-10% remaining)” and the EC50 was < 10 nM. At GSPT1 [1], the DC50 is < 25 nM and the “GSPT1 Ymin” value is recorded as “E (E = >25-75% remaining)”. Further, at CK1α (six hours incubation), the “CK1α Ymin” value is “C (C = 0-10% remaining)” and the DC50 is < 25 nM.
Turning to `Cn1c(C2CC2)nc(-c2ccc3c(c2)CN(C2CCC(=O)NC2=O)C3=O)c1-c1ccccc1` (stereo not drawn) [Example 12, 3-(5-(2-cyclopropyl-1-methyl-5-phenyl-1H-imidazol-4-yl)-1-oxoisoindolin-2-yl)piperidine-2,6-dione], in the assay on Z-138 cells, the “Ymin (%)” value is reported as “D (0-10% remaining)” and the EC50 was < 10 nM. Besides, at GSPT1 [1], the DC50 is ≥ 25 nM and the “GSPT1 Ymin” value was “E (E = >25-75% remaining)”. Further, on CK1α (six hours incubation), the “CK1α Ymin” value is reported as “C (C = 0-10% remaining)” and the DC50 is < 25 nM.
Take `Cc1nc(-c2ccc3c(c2)CN(C2CCC(=O)NC2=O)C3=O)c(-c2ccccc2)n1C` (stereo not drawn) [Example 14, 3-(5-(1,2-Dimethyl-5-phenyl-1H-imidazol-4-yl)-1-oxoisoindolin-2-yl)piperidine-2,6-dione]: in the assay with Z-138 cells, the “Ymin (%)” value is “D (0-10% remaining)” and the EC50 is < 10 nM. Also, on GSPT1 [1], the half-maximal degradation concentration (DC50) is ≥ 25 nM and the “GSPT1 Ymin” value is “E (E = >25-75% remaining)”. Further, on CK1α (six hours incubation), the “CK1α Ymin” value is reported as “C (C = 0-10% remaining)” and the DC50 was < 25 nM.
With `Cc1c(-c2ccccc2)c(-c2ccc3c(c2)CN(C2CCC(=O)NC2=O)C3=O)nn1C` (stereo not drawn) [Example 17, 3-(5-(1,5-Dimethyl-4-phenyl-1H-pyrazol-3-yl)-1-oxoisoindolin-2-yl)piperidine-2,6-dione], in the assay on Z-138 cells, the “Ymin (%)” value was “D (0-10% remaining)” and the EC50 was < 10 nM. Further, on GSPT1 [1], the DC50 was ≥ 25 nM and the “GSPT1 Ymin” value is recorded as “E (E = >25-75% remaining)”. In addition, at CK1α (six hours incubation), the “CK1α Ymin” value is “C (C = 0-10% remaining)” and the DC50 is < 25 nM.
Turning to `Cc1nc(-c2ccc3c(c2)CN(C2CCC(=O)NC2=O)C3=O)c(-c2ccccc2)o1` (stereo not drawn) [Example 19, 3-(5-(2-Methyl-5-phenyloxazol-4-yl)-1-oxoisoindolin-2-yl)piperidine-2,6-dione], in the assay on Z-138 cells, the “Ymin (%)” value was “D (0-10% remaining)” and the EC50 is < 10 nM. For the same molecule, on GSPT1 [1], the DC50 was ≥ 25 nM and the “GSPT1 Ymin” value is on record as “E (E = >25-75% remaining)”. Also, at CK1α (six hours incubation), the “CK1α Ymin” value is reported as “C (C = 0-10% remaining)” and the DC50 is < 25 nM.
For the molecule `Cn1nc(-c2ccc3c(c2)CN(C2CCC(=O)NC2=O)C3=O)cc1-c1ccc(F)cc1` (stereo not drawn) [Example 488, 3-(5-(5-(4-fluorophenyl)-1-methyl-1H-pyrazol-3-yl)-1-oxoisoindolin-2-yl)piperidine-2,6-dione], in the assay on Z-138 cells, the “Ymin (%)” value was “E (>10-25% remaining)” and the EC50 lay within 10 to 100 nM. On CK1α (six hours), the “CK1α Ymin” value is recorded as “D (D = >10- 25% remaining)” and the DC50 was < 25 nM.
Take `Cn1cc(-c2ccc3c(c2)CN(C2CCC(=O)NC2=O)C3=O)nc1C12CCC(CC1)CC2` (stereo not drawn) [Example 718, 3-(5-(2-(bicyclo[2.2.2]octan-1-yl)-1-methyl-1H-imidazol-4-yl)-1-oxoisoindolin-2-yl)piperidine-2,6-dione]: at GSPT1 [2], the DC50 is ≥ 25 nM and the “GSPT1 Ymin” value is “F (F = >75-100% remaining)”. At CK1α (six hours), the “CK1α Ymin” value is “E (E = >25-75% remaining)” and the DC50 is < 25 nM.
As to `Cn1cc(-c2ccc3c(c2)CN(C2CCC(=O)NC2=O)C3=O)nc1C12CCN(CC1)CC2` (stereo not drawn) [Example 719, 3-(5-(1-methyl-2-(quinuclidin-4-yl)-1H-imidazol-4-yl)-1-oxoisoindolin-2-yl)piperidine-2,6-dione], on GSPT1 [2], the 50% degradation concentration (DC50) is ≥ 25 nM and the “GSPT1 Ymin” value was “F (F = >75-100% remaining)”. Further, at CK1α (six hours), the “CK1α Ymin” value is recorded as “E (E = >25-75% remaining)” and the 50% degradation concentration (DC50) was ≥ 25 nM.
Take `CCc1nc(-c2ccc3c(c2)CN(C2CCC(=O)NC2=O)C3=O)c(-c2ccccc2)o1` (stereo not drawn) [Example 720, 3-(5-(2-ethyl-5-phenyloxazol-4-yl)-1-oxoisoindolin-2-yl) piperidine-2,6-dione]: at GSPT1 [2], the DC50 was < 25 nM and the “GSPT1 Ymin” value is listed as “E (E = >25-75% remaining)”. In addition, at CK1α (six hours), the “CK1α Ymin” value is given as “C (C = 0-10% remaining)” and the DC50 is < 25 nM.
For the molecule `Cn1cc(-c2ccc3c(c2)CN(C2CCC(=O)NC2=O)C3=O)nc1-c1ccc(N2CCNCC2)cc1` (stereo not drawn) [Example 721], at GSPT1 [2], the DC50 was ≥ 25 nM and the “GSPT1 Ymin” value is on record as “F (F = >75-100% remaining)”. Also, on CK1α (six hours), the “CK1α Ymin” value is on record as “D (D = >10- 25% remaining)” and the DC50 was ≥ 25 nM.
`Cn1cc(-c2ccc3c(c2)CN(C2CCC(=O)NC2=O)C3=O)nc1-c1ccc2c(c1)CC(=O)N2` (stereo not drawn) [Example 722]: at GSPT1 [2], the DC50 is < 25 nM and the “GSPT1 Ymin” value was “F (F = >75-100% remaining)”. On CK1α (six hours), the “CK1α Ymin” value is on record as “D (D = >10- 25% remaining)” and the DC50 was ≥ 25 nM.
Turning to `CC(=O)Nc1ccc(-c2nc(-c3ccc4c(c3)CN(C3CCC(=O)NC3=O)C4=O)cn2C)cc1` (stereo not drawn) [Example 723], on GSPT1 [2], the DC50 was ≥ 25 nM and the “GSPT1 Ymin” value was “F (F = >75-100% remaining)”. At CK1α (six hours), the “CK1α Ymin” value is on record as “C (C = 0-10% remaining)” and the DC50 was < 25 nM.
In the case of `Cn1cc(-c2ccc3c(c2)CN(C2CCC(=O)NC2=O)C3=O)nc1-c1cccc(F)c1F` (stereo not drawn) [Example 724], on GSPT1 [2], the DC50 is ≥ 25 nM and the “GSPT1 Ymin” value is recorded as “F (F = >75-100% remaining)”. Moreover, at CK1α (six hours), the “CK1α Ymin” value is given as “C (C = 0-10% remaining)” and the DC50 was < 25 nM.
In the same order, the values of `Cn1cc(-c2ccc3c(c2)CN(C2CCC(=O)NC2=O)C3=O)nc1-c1cc(F)ccc1Cl` (stereo not drawn) [Example 725] are ≥ 25 nM, “F (F = >75-100% remaining)”, “C (C = 0-10% remaining)” and < 25 nM.
As for `Cn1c(C2CCC2)nc(-c2ccc3c(c2)CN(C2CCC(=O)NC2=O)C3=O)c1-c1ccccc1` (stereo not drawn) [Example 727, 3-(5-(2-cyclobutyl-1-methyl-5-phenyl-1H-imidazol-4-yl)-1-oxoisoindolin-2-yl)piperidine-2,6-dione], on GSPT1 [2], the DC50 was ≥ 25 nM and the “GSPT1 Ymin” value is “F (F = >75-100% remaining)”. At CK1α (six hours), the “CK1α Ymin” value is listed as “C (C = 0-10% remaining)” and the DC50 was < 25 nM.
Regarding `O=C1CCC(N2Cc3cc(-c4nc(C5CC5)oc4-c4ccccc4)ccc3C2=O)C(=O)N1` (stereo not drawn) [Example 734, 3-(5-(2-cyclopropyl-5-phenyloxazol-4-yl)-1-oxoisoindolin-2-yl)piperidine-2,6-dione], on GSPT1 [2], the DC50 was ≥ 25 nM and the “GSPT1 Ymin” value is “F (F = >75-100% remaining)”. In addition, on CK1α (six hours), the “CK1α Ymin” value is recorded as “C (C = 0-10% remaining)” and the half-maximal degradation concentration (DC50) is < 25 nM.
`O=C1CCC(N2Cc3cc(-c4nc(C(F)F)oc4-c4ccccc4)ccc3C2=O)C(=O)N1` (stereo not drawn) [Example 735, 3-(5-(2-(difluoromethyl)-5-phenyloxazol-4-yl)-1-oxoisoindolin-2-yl) piperidine-2,6-dione]: on GSPT1 [2], the DC50 is < 25 nM and the “GSPT1 Ymin” value is given as “E (E = >25-75% remaining)”. On CK1α (six hours), the “CK1α Ymin” value is listed as “C (C = 0-10% remaining)” and the DC50 is < 25 nM.

The values are drawn from patent publication US20240158370A1, “CK1 alpha AND DUAL CK1 alpha / GSPT1 DEGRADING COMPOUNDS” (Innovo Therapeutics, Inc., priority 2022, published 2024).
